Results taken from patent US20180002371A1 (BAYLOR COLLEGE OF MEDICINE, priority 2014, published 2018).

Assays:
[1] = Pharmacokinetic studies of bufalin and 3-phospho-bufalin; conditions: p-buf 0.5 mg/kg i.p.
Description: Five quality control (QC) samples at 10 ng/mL, 20 ng/mL, 500 ng/mL, 4000 ng/mL and 8000 ng/mL of plasma were prepared independently of those used for the calibration curves. QC samples were prepared on the day of analysis in the same way as the calibration standards.
Standards, QC samples, and unknown samples were injected into a LC/MS/MS machine for quantitative analysis. […] For i.p. injected P-Buf, the PK trace was fittedto a non-compartmental extravascular model.
P-Buf was dissolved in PBS and administered intraperitoneally at the same dose.

Female ICR mice = experiment: Electrocardiogram (EKG) measurements in mice; assay type: in vivo, mouse
Description: Electrocardiogram (EKG) Measurements. […] Non-invasive EKG recordings were made using the ECGenie system (Mouse Specifics) at several subsequent time points. […] Data acquisition was performed using the program LabChart 6 (ADlnstruments). Individual EKG signals were then evaluated using e-MOUSE physiologic waveform analysis software (Mouse Specifics) as previously described.

[2] = test system: MDA-MB-231-LM3-3 orthotopic breast tumors; experiment: Therapeutic efficacy in an orthotopic TNBC mouse model; assay type: in vivo; conditions: 0.75 mg/kg three times per week
Description: Therapeutic Efficacy of 3-phospho-bufalin in an Orthotopic TNBC Mouse Model. To establish orthotopic breast tumors, 0.75×10^6 MDA-MB-231-LM3-3 cells were injected into one of the second mammary fat pads of nude mice (Charles River Laboratories, female, 6-7 weeks, n=6/group). When tumors became palpable, generally 14 days after injection, mice were randomized into two groups. The treatment group was then injected with phospho-bufalin subcutaneously (0.75 mg/kg per dose, 3 doses per week) for 3 weeks while the control group received PBS. Tumor lengths and widths were measured three times per week. Tumor sizes were calculated by: (length×width×width)/2.
The therapeutic efficacy of P-Buf was tested in an orthotopic TNBC model. LM3-3 cells (0.75×10^6 cells per mouse) were inoculated into the second pair of mammary gland fat pads of nude mice (female, […]). The mice were randomized into two groups based on luciferase imaging (n=6 per group). Fourteen days after tumor inoculation, the treatment group began receiving P-Buf (0.75 mg/kg) three times per week while the control group received PBS. Tumor volumes were measured three times per week. […] At day 31, the mice were euthanized and tumors were harvested. The tumors derived from PBS treated mice weighed ˜2.4 times more than those of the experimental treatment group (FIGS. 8B and C).

mouse heart tissues = experiment: H-E staining of mouse heart tissues; assay type: in vivo; conditions: 24 hours after drug administration
HCC1143 = experiment: Cell cytotoxicity assay (MTT), HCC1143; assay type: cell-based; conditions: HCC1143, 72 h, read-out: IC50 cell viability
Description: (§1) Cell Culture. Triple negative breast cancer (TNBC) cell lines HCC1143, SUM149PT, SUM159PT, and MDA-MB-231 were obtained from ATCC. The MDA-MB-231-LM3-3 (LM3-3) cell line was developed from lung metastasis derived from a MDA-MB-231-LM2 xenograft tumor in the mammary fat pad of a SCID mouse.
(§2) The HCC1143 cell line was grown in RPMI-1640 medium, SUM149PT and SUM159PT cell lines were grown in F-12 medium, and MDA-MB-231 cells were grown in DMEM. All culture media were supplemented with 10% fetal bovine serum. All cell lines were grown in a humidified incubator containing 5% CO2 at 37° C. Primary hepatocytes were isolated from an adult male mouse (C57BL) by collagenase perfusion (0.8 mg/mL; Sigma-Aldrich, C5138) through the portal vein and maintained in M199 medium with 10% FBS. The viability of freshly isolated hepatocytes was verified using Trypan blue staining.
(§3) Cell Cytotoxicity Assays. TNBC cells (5000 to 7000 cells per well) were seeded in 96-well plates in medium supplemented with 10% FBS. […] Cell viabilities relative to untreated control cells were plotted using Graphpad Prism.

LM3-3 cells [3] = experiment: Bufalin and gefitinib cotreatment, cell viability; assay type: cell-based
SUM159PT = experiment: Cell cytotoxicity assay (MTT), SUM159PT; assay type: cell-based; conditions: 72 h, read-out: IC50 cell viability
Description: as §1, §2, §3

SUM149PT = experiment: Cell cytotoxicity assay (MTT), SUM149PT; assay type: cell-based; conditions: 72 h, read-out: IC50 cell viability
Description: as §1, §2, §3

LM3-3 cells [4] = experiment: Single cell motility assay; assay type: cell-based
Description: Single Cell Motility Assays. Microtiter 96-well plates pre-coated with collagen V were covered with beads provided by a Cell Motility HCS kit (Thermo Scientific Co. Cat# K0800011). LM3-3 cells (500) were seeded in each bead-coated well. […] The cell track areas (pixels) were counted using Image J. To attain statistical significance, more than 50 cell tracks in each sample were counted.

SRC-3 [5] = target: T1, SRC-3 (Homo sapiens, UniProt Q9Y6Q9); experiment: Western blotting of SRC-3 protein in TNBC cells; assay type: cell-based
T1 construct: endogenous in cells; host or cells: HCC1143, SUM149PT, SUM159PT, MDA-MB-231, MDA-MB-231-LM3-3
T1 sequence (Q9Y6Q9 whole entry): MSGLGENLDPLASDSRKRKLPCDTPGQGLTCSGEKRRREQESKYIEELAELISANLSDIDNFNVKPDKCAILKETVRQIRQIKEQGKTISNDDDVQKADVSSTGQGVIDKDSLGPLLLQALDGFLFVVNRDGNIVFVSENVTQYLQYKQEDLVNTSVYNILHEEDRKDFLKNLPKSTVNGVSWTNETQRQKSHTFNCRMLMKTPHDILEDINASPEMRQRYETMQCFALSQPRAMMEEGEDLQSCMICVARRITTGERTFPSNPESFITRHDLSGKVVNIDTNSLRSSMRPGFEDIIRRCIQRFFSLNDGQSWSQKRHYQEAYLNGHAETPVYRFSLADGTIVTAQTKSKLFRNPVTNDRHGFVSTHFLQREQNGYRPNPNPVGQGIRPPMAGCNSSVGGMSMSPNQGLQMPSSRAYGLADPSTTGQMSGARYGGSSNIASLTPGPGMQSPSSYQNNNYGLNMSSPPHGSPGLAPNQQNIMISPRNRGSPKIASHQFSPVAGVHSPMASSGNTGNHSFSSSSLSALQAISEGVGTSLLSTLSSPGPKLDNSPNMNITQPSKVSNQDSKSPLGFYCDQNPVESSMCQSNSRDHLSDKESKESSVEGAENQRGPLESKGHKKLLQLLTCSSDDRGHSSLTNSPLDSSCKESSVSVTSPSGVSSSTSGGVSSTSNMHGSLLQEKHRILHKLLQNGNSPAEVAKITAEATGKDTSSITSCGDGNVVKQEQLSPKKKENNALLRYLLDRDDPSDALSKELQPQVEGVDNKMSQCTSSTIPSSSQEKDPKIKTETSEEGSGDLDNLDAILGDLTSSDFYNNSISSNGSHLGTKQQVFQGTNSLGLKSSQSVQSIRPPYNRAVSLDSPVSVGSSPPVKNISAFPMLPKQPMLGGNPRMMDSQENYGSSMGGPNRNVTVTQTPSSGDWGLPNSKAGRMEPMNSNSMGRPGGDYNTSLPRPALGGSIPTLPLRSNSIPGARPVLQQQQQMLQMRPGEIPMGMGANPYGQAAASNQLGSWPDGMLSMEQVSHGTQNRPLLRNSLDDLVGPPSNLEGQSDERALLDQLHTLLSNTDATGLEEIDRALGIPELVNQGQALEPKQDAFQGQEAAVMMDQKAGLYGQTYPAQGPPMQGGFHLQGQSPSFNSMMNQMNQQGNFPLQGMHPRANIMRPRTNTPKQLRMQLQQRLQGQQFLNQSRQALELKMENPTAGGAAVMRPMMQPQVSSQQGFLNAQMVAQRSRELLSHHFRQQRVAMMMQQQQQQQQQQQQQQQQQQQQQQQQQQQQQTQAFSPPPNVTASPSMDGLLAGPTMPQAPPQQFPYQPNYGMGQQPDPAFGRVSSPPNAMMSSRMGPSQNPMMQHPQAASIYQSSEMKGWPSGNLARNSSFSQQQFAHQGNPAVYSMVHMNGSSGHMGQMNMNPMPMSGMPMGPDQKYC
Description: Western Blotting Assays. Cell lysate was prepared by adding RIPA buffer (containing 10 mM Tris-Cl pH 8.0, 1 mM EDTA, 0.5 mM EGTA, 1% Triton X-100, 0.1% sodium deoxycholate, 0.1% SDS, 140 mM NaCl, and protease inhibitors) to cells kept on ice. After spinning samples at 16,000 rpm for 15 minutes at 4 ° C., insoluble materials in the collected cell lysate were precipitated and discarded. The total protein concentration was measured using a Bradford protein assay. An equivalent mass of each sample was loaded and electrophoretically separated by 10% SDS-PAGE. Then, proteins on PAGE the gel were transferred to a PVDF membrane. Anti-SRC-3 (Cell Signaling Technology Co. Cat#2126) and anti-actin (Cell Signaling Technology Co. Cat#8457) were used to probe the membranes.

MDA-MB-231 = experiment: Cell cytotoxicity assay (MTT), MDA-MB-231; assay type: cell-based; conditions: MDA-MB-231, 72 h, read-out: IC50 cell viability
Description: as §1, §2, §3

cancer cells = conditions: cited from earlier work
MDA-MB-231-LM3-3 = experiment: Cell cytotoxicity assay (MTT), MDA-MB-231-LM3-3; assay type: cell-based; conditions: MDA-MB-231-LM3-3, 72 h, read-out: IC50 cell viability
Description: as §1, §2, §3

SRC-3 [6] = target: T1, SRC-3; conditions: receptor interacting domain; cited from earlier work
[7] = 3-phospho-bufalin 7.5 mg/kg i.p., +10 min post-injection
[8] = 3-phospho-bufalin 7.5 mg/kg i.p., −5 min post-injection (baseline)
[9] = 3-phospho-bufalin 11.25 mg/kg i.p., +5 min post-injection
[10] = 3-phospho-bufalin 11.25 mg/kg i.p., +10 min post-injection
[11] = 3-phospho-bufalin 11.25 mg/kg i.p., +15 min post-injection
[12] = 3-phospho-bufalin 11.25 mg/kg i.p., −5 min post-injection (baseline)

SMILES: C[C@]12CC[C@H](OP(=O)(O)O)C[C@H]1CC[C@@H]1[C@@H]2CC[C@]2(C)[C@@H](c3ccc(=O)oc3)CC[C@]12O [3-Phospho-Bufalin, 3-Phospho-bufalin]
- AUCInf ([1]; mice): 0.046 ± 0.018 µM·h
- AUClast/D ([1]; mice): 0.075 ± 0.044 µM·kg·h/mg
- conversion to parent bufalin in vivo ([1]; free bufalin detected in plasma): can be converted to parent bufalin in vivo
- changes in EKG parameters (Female ICR mice; 7.5 mg/kg and 11.25 mg/kg i.p.): no significant changes in EKG parameters were observed
- HR (Female ICR mice; [7]): 788.7 ± 1.2 BPM
- QRS (Female ICR mice; [7]): 11.0 ± 0.1 ms
- QT (Female ICR mice; [7]): 38.2 ± 0.9 ms
- QTc (Female ICR mice; [7]): 43.8 ± 1.0 ms
- RR (Female ICR mice; [7]): 76.1 ± 0.1 ms
- ST (Female ICR mice; [7]): 27.6 ± 0.9 ms
- HR (Female ICR mice; [8]): 754.7 ± 6.6 BPM
- QRS (Female ICR mice; [8]): 10.6 ± 0.1 ms
- QT (Female ICR mice; [8]): 40.2 ± 0.6 ms
- QTc (Female ICR mice; [8]): 45.0 ± 0.5 ms
- RR (Female ICR mice; [8]): 79.6 ± 0.7 ms
- ST (Female ICR mice; [8]): 30.1 ± 0.7 ms
- HR (Female ICR mice; [9]): 779.7 ± 1.5 BPM
- QRS (Female ICR mice; [9]): 10.9 ± 0.1 ms
- QT (Female ICR mice; [9]): 37.1 ± 0.3 ms
- QTc (Female ICR mice; [9]): 42.3 ± 0.4 ms
- RR (Female ICR mice; [9]): 77.0 ± 0.1 ms
- ST (Female ICR mice; [9]): 26.7 ± 0.4 ms
- HR (Female ICR mice; [10]): 761.3 ± 7.5 BPM
- QRS (Female ICR mice; [10]): 11.1 ± 0.2 ms
- QT (Female ICR mice; [10]): 38.1 ± 0.6 ms
- QTc (Female ICR mice; [10]): 43.0 ± 0.6 ms
- RR (Female ICR mice; [10]): 78.8 ± 0.8 ms
- ST (Female ICR mice; [10]): 26.6 ± 0.5 ms
- HR (Female ICR mice; [11]): 755.0 ± 1.0 BPM
- QRS (Female ICR mice; [11]): 11.5 ± 0.1 ms
- QT (Female ICR mice; [11]): 39.1 ± 0.9 ms
- QTc (Female ICR mice; [11]): 43.9 ± 0.9 ms
- RR (Female ICR mice; [11]): 79.5 ± 0.1 ms
- ST (Female ICR mice; [11]): 28.1 ± 0.8 ms
- HR (Female ICR mice; [12]): 798.0 ± 12.8 BPM
- QRS (Female ICR mice; [12]): 10.6 ± 0.3 ms
- QT (Female ICR mice; [12]): 39.1 ± 2.4 ms
- QTc (Female ICR mice; [12]): 45.1 ± 2.9 ms
- RR (Female ICR mice; [12]): 75.8 ± 0.2 ms
- ST (Female ICR mice; [12]): 29.0 ± 2.2 ms
- tumor weight, PBS treated mice relative to treatment group ([2]; day 31): ~2.4 times
- TNBC tumor growth (tumor volume) ([2]; nude mice, LM3-3 tumors): can significantly inhibit TNBC tumor growth
- histological examination of cardiomyocytes (mouse heart tissues): little damage to cardiomyocytes

SMILES: C[C@]12CC[C@H](O)C[C@H]1CC[C@@H]1[C@@H]2CC[C@]2(C)[C@@H](c3ccc(=O)oc3)CC[C@]12O [Bufalin, bufalin]
- IC50 (HCC1143): 71.8 nM
- synergy with gefitinib on cell viability (LM3-3 cells [3]; 5 or 10 nM bufalin with gefitinib, LM3-3 cells): synergize with gefitinib
- IC50 (SUM159PT): < 20 nM
- IC50 (SUM149PT): < 20 nM
- toxicity toward LM3-3 cells under motility assay conditions (LM3-3 cells [4]; 12 hour time point): minimal toxicity
- motility of LM3-3 cells (LM3-3 cells [4]; increasing concentrations of bufalin): decreased with increasing concentrations of bufalin
- SRC-3 protein expression (SRC-3 [5]; 100 nM, HCC1143, SUM149PT, SUM159PT, MDA-MB-231, MDA-MB-231-LM3-3): downregulate SRC-3 protein expression
- SRC-3 protein level, dose dependence (SRC-3 [5]; MDA-MB-231-LM3-3): downregulated SRC-3 in MDA-MB-231-LM3-3 in a dose-dependent manner
- IC50 (MDA-MB-231): < 20 nM
- IC50 values (cancer cells): low nM range
- IC50 (MDA-MB-231-LM3-3): < 20 nM
- binding to SRC-3 (SRC-3 [6]): directly binds to SRC-3 in its receptor interacting domain

SMILES: COc1cc2ncnc(Nc3ccc(F)c(Cl)c3)c2cc1OCCCN1CCOCC1 [gefitinib]
- toxicity in LM3-3 cells (LM3-3 cells [3]; gefitinib alone, up to 20 μM): minimal toxicity
